Data set [1] in a line: Entry of Gefitinib into the brain with prior P-gp inhibitor. Format: in vivo, C57BL/6 mice.
The subject of another data set is ALS. The conditions noted are these: cited from earlier work.
For data set [2] the following is noted: multi-dose animal studies; cited from earlier work.
Data set [3] has as its system SOD1G93A mouse model of ALS. The conditions noted are these: cited from earlier work.
For another data set, the system named is human cancer cells. As to conditions: cited from earlier work.
For data set [4] the following is noted: in vivo; cited from earlier work.
For data set [5], the system named is murine Hb9-GFP+ motor neurons co-cultured with ALS patient iAstrocytes. The data set can be described thus: ALS patient iAstrocyte / mouse Hb9-GFP+ motor neuron co-culture, motor neuron survival. Format: cell-based, human iAstrocytes, mouse motor neurons. The conditions noted are these: iAstrocytes of three ALS patients pre-treated 24 h; survival at 72 h vs 24 h, normalised to DMSO control.

The target in the next data set is P-glycoprotein (P-gp) (Homo sapiens, UniProt P08183). As to conditions: Togashi et al. 2012; cited from earlier work.
Sequence of P-glycoprotein (P-gp) (P08183 whole entry): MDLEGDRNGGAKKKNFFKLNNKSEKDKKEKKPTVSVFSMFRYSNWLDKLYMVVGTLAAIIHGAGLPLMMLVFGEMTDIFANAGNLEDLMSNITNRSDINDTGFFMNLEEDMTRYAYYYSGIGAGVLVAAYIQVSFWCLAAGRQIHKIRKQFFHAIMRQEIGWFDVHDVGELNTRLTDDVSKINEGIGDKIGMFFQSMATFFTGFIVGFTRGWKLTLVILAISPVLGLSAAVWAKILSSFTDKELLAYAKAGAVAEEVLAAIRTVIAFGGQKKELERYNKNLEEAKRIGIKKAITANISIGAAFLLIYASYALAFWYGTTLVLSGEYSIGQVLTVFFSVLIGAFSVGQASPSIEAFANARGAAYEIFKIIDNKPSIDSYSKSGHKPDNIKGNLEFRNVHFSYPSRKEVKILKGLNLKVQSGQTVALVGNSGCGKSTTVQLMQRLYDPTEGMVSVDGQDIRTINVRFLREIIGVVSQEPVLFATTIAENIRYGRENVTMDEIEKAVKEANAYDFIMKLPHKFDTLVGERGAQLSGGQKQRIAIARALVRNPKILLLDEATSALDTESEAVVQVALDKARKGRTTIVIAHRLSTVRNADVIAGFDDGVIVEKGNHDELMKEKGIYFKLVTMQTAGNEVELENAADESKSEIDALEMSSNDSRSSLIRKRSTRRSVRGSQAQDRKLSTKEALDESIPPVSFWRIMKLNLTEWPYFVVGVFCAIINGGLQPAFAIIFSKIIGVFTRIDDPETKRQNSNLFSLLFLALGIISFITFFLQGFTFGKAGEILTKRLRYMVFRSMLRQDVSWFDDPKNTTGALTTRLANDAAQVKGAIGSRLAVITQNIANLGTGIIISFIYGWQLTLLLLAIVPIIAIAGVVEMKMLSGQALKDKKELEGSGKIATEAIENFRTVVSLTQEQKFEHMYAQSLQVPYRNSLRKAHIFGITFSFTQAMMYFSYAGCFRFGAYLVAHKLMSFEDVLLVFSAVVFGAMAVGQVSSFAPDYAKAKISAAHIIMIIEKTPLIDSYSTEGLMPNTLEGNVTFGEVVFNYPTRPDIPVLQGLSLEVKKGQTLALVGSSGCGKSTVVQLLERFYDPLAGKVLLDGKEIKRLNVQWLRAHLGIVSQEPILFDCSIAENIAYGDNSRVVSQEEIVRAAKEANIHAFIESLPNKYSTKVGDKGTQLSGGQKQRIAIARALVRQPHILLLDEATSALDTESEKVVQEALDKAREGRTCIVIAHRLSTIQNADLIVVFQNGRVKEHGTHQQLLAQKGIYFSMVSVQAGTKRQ
For data set [6] the following is noted: phase I trials; cited from earlier work.
For data set [7] the following is noted: in vivo; cited from earlier work. This is another data set of the same source.

SMILES strings stand for the structures.

This is an account of results in patent US20180263992A1, “TREATMENT OF NEURODEGENERATIVE DISEASES” (BENEVOLENTAI BIO LIMITED, priority 2015, published 2018).

Turning to `COc1cc2c(cc1OC)CN(CCc1ccc(NC(=O)c3cccc4c(=O)c5cccc(OC)c5[nH]c34)cc1)CC2` [Elacridar], the “CNS penetration of Gefitinib” value in [1] (Elacridar 100 mg/kg po before Gefitinib 30 mg/kg po, 2 h post dose) is on record as “significantly increased”; in data set [1] (Elacridar 100 mg/kg po before Gefitinib 100 mg/kg po, 2 h post dose) it was “significantly increased”.

On to `CO[C@H]1C[C@@H]2CC[C@@H](C)[C@@](O)(O2)C(=O)C(=O)N2CCCC[C@H]2C(=O)O[C@H]([C@H](C)C[C@@H]2CC[C@@H](OCCO)[C@H](OC)C2)CC(=O)[C@H](C)/C=C(\C)[C@@H](O)[C@@H](OC)C(=O)[C@H](C)C[C@H](C)/C=C/C=C/C=C/1C` [Everolimus], for which, in data set [1] (Everolimus 10 mg/kg ip), the “CNS penetration of Gefitinib” value was “did not appear to have any effect” and the “plasma exposure of Gefitinib” value is given as “increased”.

Regarding `Nc1nc2ccc(OC(F)(F)F)cc2s1` [Riluzole], in the data set on ALS (ALS), the prolongs life is 2-3 months and the relief of symptoms result is listed as “does not relieve symptoms”. In the data set on ALS (in vivo), the undesirable side effects result is “nausea and fatigue”.

In the case of `C=CC(=O)Nc1cc2c(Nc3ccc(F)c(Cl)c3)ncnc2cc1OCCCN1CCOCC1` [canertinib], the toxicity result in data set [2] was “minimal toxicity”.

For the compound `C#Cc1cccc(Nc2ncnc3cc(OCCOC)c(OCCOC)cc23)c1` [erlotinib], in [3], the lifespan result is given as “failed to extend lifespan”; the “modulation of markers for astrocytes and microglia” value was “did not correlate with a modulation of markers for astrocytes and microglia”; the “penetration into the central nervous system” value was “penetrated into the central nervous system”; the “protection of motor synapses” value is “did not protect motor synapses”. Further, the “symptom delay (readouts of disease onset and progression)” value in data set [3] is “modest yet statistically significant symptom delay”. In the data set on human cancer cells, the cell-cycle progression entry is “blocks cell-cycle progression in the G1 phase” and the “concentration inhibiting EGF-dependent cell proliferation” value was “nanomolar concentrations”. Besides, the undesirable side effects result in data set [4] was “skin irritation and diarrhea”.

Turning to `COc1cc2ncnc(Nc3ccc(F)c(Cl)c3)c2cc1OCCCN1CCOCC1` [gefitinib, N-(3-chloro-4-fluoro-phenyl)-7-methoxy-6-(3-morpholin-4-ylpropoxy)quinazolin-4-amine], the motor neuron survival entry in data set [5] was “dose-dependent increase in motor neuron survival”. On P-glycoprotein (P-gp), the “P-glycoprotein (P-gp) substrate status” value was “substrate”. In addition, the maximal tolerated dosage in data set [6] is recorded as 700 mg/day. Also, the biological half-life in [7] is given as 28 hours.
